Reference: patent publication US20160316791A1, “METHOD TO PROTECT LIPOPHILIC NUTRIENTS AGAINST RUMINAL DEGRADATION” (UNIVERSITEIT GENT, priority 2013, published 2016)

System: dairy cows
Assay: In vivo protection and transfer of t10c12-CLA to milk, milk fat content
Conditions: 7 g per cow daily; FIG. 9
Description: Eight dairy cows in mid-lactation (100 to 220 days in milk, 562 to 712 kg live weight, minimum daily production of 20 to 25 kg milk) were used in a sequential set-up to test the in vivo protection of fatty acids and transfer to the milk. Two supplements were tested: First, a protected fatty acid emulsion, prepared according to Example 1, was administered (n=4). This product consisted of a protein extract from potato tuber peels, which was further used to emulsify a commercially available triacylglyceride mixture of cis-9, trans-11 and trans-10, cis-12 conjugated linoleic acid (t10c12-CLA) (TONALIN® TG80, BASF-AG, Ludwigshafen, Germany) and protected against rumen degradation through the creation of protein-phenol complexes by addition of 4-methylcatechol. The degree of rumen bypass of t10c12 CLA was assessed in vitro as described in Example 1 before the start of the in vivo trial. […]
The experimental period consisted of six weeks. […] Milk fat content was determined by Fourier Transform Infrared analysis (FTIR Delta Instruments, Drachten, The Netherlands) and fatty acids determined as described by Jorjong et al.^(19) Milk fat is presented as percentage of the total mass of milk produced per day and t10c12-CLA as g per 100 g of fatty acids detected.

CCCCC/C=C\C=C\CCCCCCCCC(=O)O [t10c12-CLA, trans-10, cis-12 conjugated linoleic acid]
transfer of dietary t10c12-CLA to the milk: up to 5%
